Key:
[1] = Metabolism identification (MetID) assay in rat hepatocytes; settings: 10 μM bromolysergide, 3 hours, 37 degrees Celsius
[2] = patients given up to 22 mg; Schneckloth, R., et al., Circulation 1957; cited from earlier work
[3] = Metabolism identification (MetID) assay in human liver microsomes S9 fraction; settings: 10 μM bromolysergide, human liver microsomes S9 1 mg/mL, NADPH, one hour, 37° C.
[4] = Metabolism identification (MetID) assay in human hepatocytes; settings: 10 μM bromolysergide, 3 hours, 37 degrees Celsius
[5] = Pharmacokinetics of 2-bromo-LSD prodrugs in non-human primates; settings: cynomolgus monkey, plasma; for AUC(0-t) / Cmax: iv
5-HT2B receptor = 5-HT2B receptor (Homo sapiens, UniProt P41595); settings: cited from earlier work
5-HT2A receptor = 5-HT2A receptor (Homo sapiens, UniProt P28223); settings: Lewis, V. et al, Cell Reports 2023; cited from earlier work
[6] = Pharmacokinetics of 2-bromo-LSD prodrugs in rats; settings: male, Sprague-Dawley, rat, plasma, iv
[7] = target: T1, recombinant human monoacylglyceride lipase (rhMAGL) (Homo sapiens, UniProt Q99685); assay: In vitro monoglyceride stability of lipid prodrugs with lipoprotein lipase and rhMAGL; format: in vitro ADME; settings: 50 μM prodrug, 10 mg/mL BSA, LPL 300 units/mL, 180 vs 30 minutes, 37° C., scale −10 to 10
T1 sequence (Q99685 1-303): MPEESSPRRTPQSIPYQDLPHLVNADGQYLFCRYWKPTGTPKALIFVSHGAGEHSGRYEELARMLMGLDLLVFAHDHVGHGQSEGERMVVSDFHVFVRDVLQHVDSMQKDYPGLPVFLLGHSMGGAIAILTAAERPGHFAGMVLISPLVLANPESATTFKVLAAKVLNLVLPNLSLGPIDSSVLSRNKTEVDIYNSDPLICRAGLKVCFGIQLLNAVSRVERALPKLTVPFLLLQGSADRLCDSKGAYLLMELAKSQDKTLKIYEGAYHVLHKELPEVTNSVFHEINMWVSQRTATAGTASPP
Method: The stability of lipid prodrugs of 2-bromo-LSD was evaluated in the presence or absence of recombinant human monoacylglyceride lipase (rhMAGL). 50 µM of prodrug was incubated in 10 mg/mL BSA supplemented with lipoprotein lipase (300 units/mL) and rhMAGL (0-0.5 μg/mL). The concentration of MAGL may be adjusted based on observed activity. Reactions were initiated via the addition of prodrug and incubated at 37° C. for 180 minutes. Aliquots were removed at 30, 60, 120, and 180 minutes and the reaction quenched with the addition of cold acetonitrile spiked with internal standard(s) (1:3 sample to acetonitrile). Samples were vortexed and centrifuged and the supernatant transferred and diluted in 0.1% formic acid water (1:3 supernatant to 0.1% formic acid water). Samples were analyzed via LC-MS. Monoglyceride stability was calculated using the following equations:
LPL MG Ratio=MG Peak Area at 180 minutes for LPL only/MG Peak area at 30 minutes for LPL only
rhMAGLMG Ratio=MG Peak Area at 180 minutes for LPLand rhMAGL/MG Peak Area at 30 minutes for LPLand rhMAGL
MG Stability=((rhMAGLMG Ratio−(1−LPL MG Ratio))*10
Stability is calculated on a scale of −10 to 10, with 10 representing 100% monoglyceride remaining (i.e., highest stability) and −10 representing 100% monoglyceride loss (i.e., lowest stability). Monoglyceride stability is represented by the following categories, wherein A is a stability score of 5 to 10, B is a stability score of 0 to 5, C is a stability score of −5 to 0, and D is a stability score of −5 to −10.

Sequence of 5-HT2B receptor (P41595 whole entry): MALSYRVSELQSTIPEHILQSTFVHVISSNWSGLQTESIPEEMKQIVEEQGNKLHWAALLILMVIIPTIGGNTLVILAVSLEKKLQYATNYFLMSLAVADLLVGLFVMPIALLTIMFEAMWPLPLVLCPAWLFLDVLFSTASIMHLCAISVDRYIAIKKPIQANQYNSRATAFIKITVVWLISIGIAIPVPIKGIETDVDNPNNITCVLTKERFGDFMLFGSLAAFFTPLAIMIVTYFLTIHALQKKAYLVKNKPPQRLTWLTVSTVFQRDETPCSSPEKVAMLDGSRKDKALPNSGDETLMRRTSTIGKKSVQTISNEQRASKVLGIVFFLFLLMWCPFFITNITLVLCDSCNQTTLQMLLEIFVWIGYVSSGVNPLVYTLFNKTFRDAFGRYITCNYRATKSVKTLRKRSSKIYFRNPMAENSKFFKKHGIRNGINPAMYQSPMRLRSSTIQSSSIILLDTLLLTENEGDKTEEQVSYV
Sequence of 5-HT2A receptor (P28223 whole entry): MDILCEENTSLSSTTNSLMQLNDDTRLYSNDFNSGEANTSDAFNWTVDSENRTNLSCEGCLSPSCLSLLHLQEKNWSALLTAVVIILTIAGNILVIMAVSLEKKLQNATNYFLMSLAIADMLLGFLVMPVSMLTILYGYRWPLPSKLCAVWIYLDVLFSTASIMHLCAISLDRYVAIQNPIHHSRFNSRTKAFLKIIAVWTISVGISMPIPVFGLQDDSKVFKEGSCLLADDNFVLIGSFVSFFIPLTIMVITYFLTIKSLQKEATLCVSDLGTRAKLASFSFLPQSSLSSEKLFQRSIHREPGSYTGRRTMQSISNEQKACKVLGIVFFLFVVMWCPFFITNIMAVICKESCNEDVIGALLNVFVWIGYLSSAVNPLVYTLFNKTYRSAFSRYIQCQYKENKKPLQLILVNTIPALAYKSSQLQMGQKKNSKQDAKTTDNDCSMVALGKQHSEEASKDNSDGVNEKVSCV

| Structure (SMILES) | % of Total Rat [1] | % of Total Human_LM [3] | % of Total Human [4] | Monoacylglyceride Stability [7] | other results |
| --- | --- | --- | --- | --- | --- |
| CCN(CC)C(=O)[C@@H]1C=C2c3cccc4[nH]c(Br)c(c34)C[C@H]2N(C)C1 [Compound 2BL, 2-bromo-lysergic acid diethylamide] | 18.5% | 30.0% | 41.3% |  | hallucinations in patients [2]: no hallucinations reported; Tmax ([5]; oral): ~2 h; AUC(0-t) ([5]; female): 340 ± 38 ng·h/mL; Cmax ([5]; female): 340 ± 58 ng/mL; AUC(0-t) ([5]; male): 300 ± 40 ng·h/mL; Cmax ([5]; male): 280 ± 8.8 ng/mL; activity at 5-HT2B receptor (5-HT2B receptor): antagonist; activity at 5-HT2A receptor (5-HT2A receptor): partial agonism; AUC(0-t) [6]: 0.93 ± 0.1 µM·h; Cmax [6]: 890 ± 60 nM |
| CCCCCCCC(=O)OCC(COC(=O)CCCCCCC)OC(=O)CC1(CC(=O)OCCCCC(=O)n2c(Br)c3c4c(cccc42)C2=C[C@@H](C(=O)N(CC)CC)CN(C)[C@@H]2C3)CC1 [Compound I-18, 2BL-FSI5-C5bcPr-2-TG-octanoate] |  |  |  | A (A is a stability score of 5 to 10) |  |
| CCCCCCCC(=O)OCC(COC(=O)CCCCCCC)OC(=O)CC(C)(C)CCC(=O)OCCCCC(=O)n1c(Br)c2c3c(cccc31)C1=C[C@@H](C(=O)N(CC)CC)CN(C)[C@@H]1C2 [Compound I-19, 2BL-FSI5-C6bbGMe-2-TG-octanoate] |  |  |  | A (A is a stability score of 5 to 10) |  |
| CCCCCCCC/C=C\CCCCCCCC(=O)OCC(COC(=O)CCCCCCC/C=C\CCCCCCCC)OC(=O)CC(C)CC(=O)Oc1ccc(Cn2c(Br)c3c4c(cccc42)C2=C[C@@H](C(=O)N(CC)CC)CN(C)[C@@H]2C3)cc1 (some centres unmarked) [Compound I-20, 2BL-PHB-C5bMe-2-TG-oleate] |  |  |  | A (A is a stability score of 5 to 10) |  |
| CCCCCCCC/C=C\CCCCCCCC(=O)OCC(COC(=O)CCCCCCC/C=C\CCCCCCCC)OC(=O)CC(C)CC(=O)Oc1ccc(COC(=O)n2c(Br)c3c4c(cccc42)C2=C[C@@H](C(=O)N(CC)CC)CN(C)[C@@H]2C3)cc1 (some centres unmarked) [Compound I-21, 2BL-CPHB-C5bMe-2-TG-oleate] |  |  |  | A (A is a stability score of 5 to 10) |  |
| CCCCCCCC(=O)OCC(COC(=O)CCCCCCC)OC(=O)CC(C)(C)CCC(=O)OCCCC(=O)n1c(Br)c2c3c(cccc31)C1=C[C@@H](C(=O)N(CC)CC)CN(C)[C@@H]1C2 [Compound I-22, 2BL-FSI4-C6bbGMe-2-TG-octanoate] |  |  |  | A (A is a stability score of 5 to 10) |  |
| CCCCCCCC(=O)OCC(COC(=O)CCCCCCC)OC(=O)CC(C)(C)CCC(=O)OCOC(=O)n1c(Br)c2c3c(cccc31)C1=C[C@@H](C(=O)N(CC)CC)CN(C)[C@@H]1C2 [Compound I-23, 2BL-CASI-C6bbGMe-2-TG-octanoate] |  |  |  | A (A is a stability score of 5 to 10) |  |
| CCCCCCCC/C=C\CCCCCCCC(=O)OCC(COC(=O)CCCCCCC/C=C\CCCCCCCC)OC(=O)CC(C)CCCCCCC(=O)n1c(Br)c2c3c(cccc31)C1=C[C@@H](C(=O)N(CC)CC)CN(C)[C@@H]1C2 (some centres unmarked) [Compound I-24, 2BL-C10bMe-2-TG-oleate] |  |  |  | A (A is a stability score of 5 to 10) |  |
| CCCCCCCC(=O)OCC(COC(=O)CCCCCCC)OC(=O)CC1(CC(=O)OCn2c(Br)c3c4c(cccc42)C2=C[C@@H](C(=O)N(CC)CC)CN(C)[C@@H]2C3)CC1 [Compound I-25, 2BL-ASI-C5bcPr-2-TG-octanoate] |  |  |  | D (D is a stability score of −5 to −10) |  |
| CCCCCCCC(=O)OCC(COC(=O)CCCCCCC)OC(=O)CC1(CC(=O)n2c(Br)c3c4c(cccc42)C2=C[C@@H](C(=O)N(CC)CC)CN(C)[C@@H]2C3)CC1 [Compound I-26, 2BL-C5bcPr-2-TG-octanoate] |  |  |  | A (A is a stability score of 5 to 10) |  |
| CCCCCCCC(=O)OCC(COC(=O)CCCCCCC)OC(=O)CC(C)(C)CCC(=O)OCn1c(Br)c2c3c(cccc31)C1=C[C@@H](C(=O)N(CC)CC)CN(C)[C@@H]1C2 [Compound I-27, 2BL-ASI-C6bbGMe-2-TG-octanoate] |  |  |  | D (D is a stability score of −5 to −10) |  |
| CCCCCCCC(=O)OCC(COC(=O)CCCCCCC)OC(=O)CC(C)(C)CC(=O)OCn1c(Br)c2c3c(cccc31)C1=C[C@@H](C(=O)N(CC)CC)CN(C)[C@@H]1C2 [Compound I-28, 2BL-ASI-C5bbGMe-2-TG-octanoate] |  |  |  | D (D is a stability score of −5 to −10) |  |
| CCN(CC)C(=O)[C@@H]1C=C2c3cccc4[nH]c(O)c(c34)C[C@H]2N(C)C1 [Compound M339] | 3.9% | 4.4% | 4.8% |  |  |
| CN1C[C@H](C(N)=O)C=C2c3cccc4[nH]c(Br)c(c34)C[C@H]21 [Compound M345] | 0.1% | 0.2% | 0.4% |  |  |
| CN1C[C@H](C(=O)O)C=C2c3cccc4[nH]c(Br)c(c34)C[C@H]21 [Compound M346] | 0.5% | 0.9% | 14.3% |  |  |
| CCNC(=O)[C@@H]1C=C2c3cccc4[nH]c(Br)c(c34)C[C@H]2NC1 [Compound M359] | 0.7% | 1.2% | 1.0% |  |  |
| CCNC(=O)[C@@H]1C=C2c3cccc4[nH]c(Br)c(c34)C[C@H]2N(C)C1 [Compound M373] | 7.7% | 19.6% | 10.3% |  |  |
| CCN(CC)C(=O)[C@@H]1C=C2c3cccc4[nH]c(Br)c(c34)C[C@H]2NC1 [Compound M387] | 2.5% | 3.0% | 3.0% |  |  |
| CCCCCCCC(=O)OCC(COC(=O)CCCCCCC)OC(=O)CC1(CC(=O)OCOC(=O)n2c(Br)c3c4c(cccc42)C2=C[C@@H](C(=O)N(CC)CC)CN(C)[C@@H]2C3)CC1 [I-9′, 2BL-CASI-C5bcPr-2-TG-octanoate] |  |  |  | A (A is a stability score of 5 to 10) |  |
| CCCCCCCC(=O)OCC(COC(=O)CCCCCCC)OC(=O)CC1(CC(=O)OCCCC(=O)n2c(Br)c3c4c(cccc42)C2=C[C@@H](C(=O)N(CC)CC)CN(C)[C@@H]2C3)CC1 [I-15′, 2BL-FSI4-C5bcPr-2-TG-octanoate] |  |  |  | A (A is a stability score of 5 to 10) |  |

Reference: patent US20260242371A1, “LIPID PRODRUGS OF BROM[…] USES THEREOF” (priority 2023, published 2026)
